Measured values as given in ChEMBL document CHEMBL1201862, “PubChem BioAssay data set” (2004).
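Compound exposure: 48 hours, 5 concentrations, 96-well plates. Here, GI50 denotes the concentration required for 50% inhibition of growth.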 The source made the active and inactive calls. No stated cut-off is given here; in the data, active = GI50 up to about 1.1 µM and inactive = higher.

Key:
Experiment in all cases: DTP human tumour cell line panel, 48 h
SK-MEL-5 = test system: SK-MEL-5
NCI-H23 = test system: NCI-H23
SK-MEL-2 = test system: SK-MEL-2
EKVX = test system: EKVX
MDA-MB-231 = test system: MDA-MB-231
SF-268 = test system: SF-268
SW-620 = test system: SW-620
COLO 205 = test system: COLO 205
HCT-116 = test system: HCT-116
A549 = test system: A549
OVCAR-3 = test system: OVCAR-3
786-0 = test system: 786-0
Hs-578T = test system: Hs-578T
SK-MEL-28 = test system: SK-MEL-28
K562 = test system: K562
U-251 = test system: U-251
CCRF-CEM = test system: CCRF-CEM
KM12 = test system: KM12
LOX IMVI = test system: LOX IMVI
SR = test system: SR

| Compound | GI50 (SK-MEL-5) | GI50 (NCI-H23) | GI50 (SK-MEL-2) | GI50 (EKVX) | GI50 (MDA-MB-231) | GI50 (SF-268) | GI50 (SW-620) | GI50 (COLO 205) | GI50 (HCT-116) | GI50 (A549) | GI50 (OVCAR-3) | GI50 (786-0) | GI50 (Hs-578T) | GI50 (SK-MEL-28) | GI50 (K562) | GI50 (U-251) | GI50 (CCRF-CEM) | GI50 (KM12) | GI50 (LOX IMVI) | GI50 (SR) |
| --- | --- | --- | --- | --- | --- | --- | --- | --- | --- | --- | --- | --- | --- | --- | --- | --- | --- | --- | --- | --- |
| Oc1cc(-c2cccc(OC(F)(F)F)c2)nc2cc3c(cc12)OCO3 | 0.0508 µM (active) | 0.12 µM (active) | 0.169 µM (active) | 0.643 µM (active) | 0.144 µM (active) | 2.72 µM (inactive) | 0.0883 µM (active) | 1.24 µM (inactive) | 0.0395 µM (active) | 0.182 µM (active) | 0.0547 µM (active) | 0.0902 µM (active) | 0.1 µM (active) | 0.323 µM (active) | 0.0275 µM (active) | 0.0658 µM (active) | 0.0301 µM (active) | 0.0968 µM (active) |  |  |
| Cc1ccc(S(=O)(=O)OC2CC(C(C)(C)C)CCC2c2ccccc2)cc1 (stereo not given) | 79.8 µM (inactive) | > 100 µM (inactive) | > 100 µM (inactive) | > 100 µM (inactive) | > 100 µM (inactive) |  | > 100 µM (inactive) | > 100 µM (inactive) | 50 µM (inactive) | 40.6 µM (inactive) | 93.5 µM (inactive) | > 100 µM (inactive) |  | > 100 µM (inactive) | 53.5 µM (inactive) | 50.1 µM (inactive) |  | 99.8 µM (inactive) | > 100 µM (inactive) | 23.6 µM (inactive) |
| Cc1ccsc1/C=N/Nc1cc(C)c2ccccc2n1 | 2.17 µM (inactive) | 11.2 µM (inactive) | 17.9 µM (inactive) | 6.82 µM (inactive) | 0.637 µM (active) | 17.6 µM (inactive) | 17.2 µM (inactive) | 5.92 µM (inactive) | 12.1 µM (inactive) | 9.55 µM (inactive) | 3.94 µM (inactive) | 16.3 µM (inactive) | 16.7 µM (inactive) | 14.6 µM (inactive) | 9.06 µM (inactive) | 14 µM (inactive) | 17.1 µM (inactive) | 15.6 µM (inactive) | 12 µM (inactive) |  |
| COc1cc(O)c2c(=O)c3cccc(C)c3[nH]c2c1 | > 10 µM (inactive) | > 10 µM (inactive) | > 10 µM (inactive) | > 10 µM (inactive) | > 10 µM (inactive) | > 10 µM (inactive) | > 10 µM (inactive) | > 10 µM (inactive) | > 10 µM (inactive) | > 10 µM (inactive) | 9.31 µM (inactive) | > 10 µM (inactive) | > 10 µM (inactive) | > 10 µM (inactive) | > 10 µM (inactive) | > 10 µM (inactive) | 7.6 µM (inactive) | 5.93 µM (inactive) | 8.75 µM (inactive) |  |
| COc1ccc(C2c3cc4c(cc3OC(N3CCOCC3)C2C)OCO4)cc1 (stereo not given) | 22.6 µM (inactive) | 39 µM (inactive) | 22.4 µM (inactive) | 23.9 µM (inactive) |  | 27.9 µM (inactive) | 29.1 µM (inactive) | 27.2 µM (inactive) | 20.2 µM (inactive) | 23.2 µM (inactive) | 20.8 µM (inactive) | 23.8 µM (inactive) | 15.3 µM (inactive) | 28.6 µM (inactive) | 12.8 µM (inactive) | 18 µM (inactive) | 20.3 µM (inactive) | 23.4 µM (inactive) | 24.1 µM (inactive) | 15.1 µM (inactive) |
| CC(C)(C)OC(=O)NCC(=O)NC1CC=CCC1NC(=O)CNC(=O)OC(C)(C)C (stereo not given) | > 100 µM (inactive) | > 100 µM (inactive) |  |  | > 100 µM (inactive) | > 100 µM (inactive) | > 100 µM (inactive) | > 100 µM (inactive) | > 100 µM (inactive) | > 100 µM (inactive) | > 100 µM (inactive) | > 100 µM (inactive) | > 100 µM (inactive) | > 100 µM (inactive) | > 100 µM (inactive) | > 100 µM (inactive) | > 100 µM (inactive) | > 100 µM (inactive) | > 100 µM (inactive) | > 100 µM (inactive) |
| O=C1CCCCCCCCCCC1CN1CCOCC1 (stereo not given) | 13.9 µM (inactive) | > 100 µM (inactive) |  | > 100 µM (inactive) | > 100 µM (inactive) | > 100 µM (inactive) | > 100 µM (inactive) | > 100 µM (inactive) | > 100 µM (inactive) | > 100 µM (inactive) | > 100 µM (inactive) | > 100 µM (inactive) | 30.3 µM (inactive) | > 100 µM (inactive) | > 100 µM (inactive) | > 100 µM (inactive) | > 100 µM (inactive) | > 100 µM (inactive) |  | > 100 µM (inactive) |
| O=C(NNS(=O)(=O)c1ccc(Br)cc1)c1ccc(Cl)cc1NC(=O)C12CC3CC(CC(C3)C1)C2 | 10.9 µM (inactive) | 14.2 µM (inactive) | 11.8 µM (inactive) | 11.3 µM (inactive) |  | 11.4 µM (inactive) | 19.5 µM (inactive) | 12 µM (inactive) | 21.2 µM (inactive) | 8.15 µM (inactive) | 11.6 µM (inactive) | 19.5 µM (inactive) | 17.4 µM (inactive) |  | 6.34 µM (inactive) | 10.8 µM (inactive) | 14.6 µM (inactive) | 16.4 µM (inactive) | 14.1 µM (inactive) | 12.4 µM (inactive) |
| c1ccc2c(c1)[C@@H]1O[C@@H]1[C@@]13O[C@@]21[C@H]1O[C@H]1c1ccccc13 | 12.9 µM (inactive) | 14 µM (inactive) | 14.7 µM (inactive) | 17 µM (inactive) | 15.8 µM (inactive) | 13.7 µM (inactive) | 12.8 µM (inactive) | 15.7 µM (inactive) | 12.1 µM (inactive) | 15.7 µM (inactive) | 16.5 µM (inactive) | 15.2 µM (inactive) | 13 µM (inactive) | 16.9 µM (inactive) | 13.6 µM (inactive) | 12.3 µM (inactive) | 4.48 µM (inactive) | 12.9 µM (inactive) | 10.2 µM (inactive) |  |
| N#CCc1nc(-c2cc3c(ccc4ccccc43)oc2=O)cs1 | 69.3 µM (inactive) |  | 23.1 µM (inactive) | 20.3 µM (inactive) | 17.9 µM (inactive) | 31.6 µM (inactive) | 91.8 µM (inactive) | > 100 µM (inactive) | 54.3 µM (inactive) | 50 µM (inactive) |  | 22.2 µM (inactive) | 20.3 µM (inactive) | 72.6 µM (inactive) | > 100 µM (inactive) | 18.9 µM (inactive) | > 100 µM (inactive) | 33.6 µM (inactive) | > 100 µM (inactive) |  |
| NNC(=O)c1ccc(-n2nnc(C(=O)NN)c2C(=O)NN)cc1 | > 100 µM (inactive) | > 100 µM (inactive) | > 100 µM (inactive) | > 100 µM (inactive) | > 100 µM (inactive) |  |  | > 100 µM (inactive) | > 100 µM (inactive) | > 100 µM (inactive) | > 100 µM (inactive) | > 100 µM (inactive) |  | > 100 µM (inactive) | > 100 µM (inactive) | > 100 µM (inactive) | > 100 µM (inactive) | > 100 µM (inactive) | > 100 µM (inactive) | > 100 µM (inactive) |
| CC(=O)CSc1c(-c2ccccc2)c(=O)n(-c2ccccc2)c(=S)n1-c1ccccc1 | > 100 µM (inactive) | > 100 µM (inactive) | > 100 µM (inactive) | > 100 µM (inactive) |  | > 100 µM (inactive) | > 100 µM (inactive) | > 100 µM (inactive) | > 100 µM (inactive) | > 100 µM (inactive) | > 100 µM (inactive) | > 100 µM (inactive) | 82.2 µM (inactive) | > 100 µM (inactive) | > 100 µM (inactive) | > 100 µM (inactive) | > 100 µM (inactive) | > 100 µM (inactive) | > 100 µM (inactive) | > 100 µM (inactive) |
| O=S1(=O)C(c2ccccc2)=C(O)c2ccccc21 | > 100 µM (inactive) | > 100 µM (inactive) | > 100 µM (inactive) | > 100 µM (inactive) | 7.91 µM (inactive) | > 100 µM (inactive) | > 100 µM (inactive) | > 100 µM (inactive) | > 100 µM (inactive) | > 100 µM (inactive) | > 100 µM (inactive) | > 100 µM (inactive) | > 100 µM (inactive) | > 100 µM (inactive) | > 100 µM (inactive) | > 100 µM (inactive) | > 100 µM (inactive) | > 100 µM (inactive) | > 100 µM (inactive) |  |
| c1ccc(/N=C2\c3ccsc3/C(=N/c3ccccc3)c3ccsc32)cc1 | 1.09 µM (active) | 0.914 µM (active) | 1.6 µM (inactive) | 2.09 µM (inactive) | 1.77 µM (inactive) | 2.4 µM (inactive) | 1.89 µM (inactive) | 2.63 µM (inactive) | 1.93 µM (inactive) | 2.03 µM (inactive) | 1.92 µM (inactive) | 2.75 µM (inactive) | 2.24 µM (inactive) | 2.01 µM (inactive) | 1.83 µM (inactive) | 1.91 µM (inactive) | 2.97 µM (inactive) | 2.36 µM (inactive) | 0.458 µM (active) |  |
| O=C(NCCCCNCCCNC(=O)c1ccccc1)c1ccccc1 | > 100 µM (inactive) | > 100 µM (inactive) | > 100 µM (inactive) | > 100 µM (inactive) | > 100 µM (inactive) | > 100 µM (inactive) | > 100 µM (inactive) | > 100 µM (inactive) | > 100 µM (inactive) | > 100 µM (inactive) | > 100 µM (inactive) | > 100 µM (inactive) | > 100 µM (inactive) | > 100 µM (inactive) | > 100 µM (inactive) | > 100 µM (inactive) | > 100 µM (inactive) | > 100 µM (inactive) |  | > 100 µM (inactive) |
